According to patent publication US10774046B2, “Inhibitors for the treatment of cancer and related methods” (UNIVERSITY OF LOUISVILLE RESEARCH FOUNDATION, INC., priority 2017, dated 2020):

How the values were obtained:
H460 cells [1] = assay: apoptosis by flow cytometry (annexin V / propidium iodide); type: cell-based, human; details: H460, 10 μM 5MPN
Protocol: (§1) To measure apoptosis, cells were stained with annexin V and propidium iodide and examined as previously described. For example, H460 cells were exposed to increasing concentrations of the PFKFB4 inhibitor (MPN-2), the PFKFB3 inhibitor PFK15 (Tocris) or both and viable cells were counted at 24, 48 and 72 hours. DMSO used as vehicle. For cell cycle experiments, cells were detached, washed with cold PBS and fixed in 70% ethanol (4° C., 30 minutes). The cells then were pelleted by centrifugation, resuspended in PBS containing PI and RNase A, incubated at 37° C. in the dark for 30 minutes and analyzed by flow cytometry (BD FACSCalibur). Data were analyzed using FlowJo software (TREE STAR Inc.). Results were calculated as the mean±SD of three experiments. The effects (Fa values) of the series of concentrations of MPN-2 and PFK-15 were examined individually and in combination at a constant ratio of 1:1.

[2] = tested on: normal human bronchial epithelial (NHBE) cells; assay: cell growth of normal cells, live cell count; type: cell-based; details: live cells at 48 hours
Text: (§2) H460, H1299, H441, H522 and A549 non-small cell lung cancer (NSCLC), MDA-MB-231 (breast), LNCaP (prostatic) and HCT116 (colon) adenocarcinoma and Lewis lung carcinoma (LLC) cell lines were obtained from ATCC and used within 6 months of acquisition. PFKFB4^−/− ear pinna fibroblasts isolated from TamCre/loxP/PFKFB4^−/− mice were immortalized as described previously (Chesney J et al. Fructose-2,6-bisphosphate synthesis by 6-phosphofructo-2-kinase/fructose-2,6-bisphosphatase 4 (PFKFB4) is required for the glycolytic response to hypoxia and tumor growth. Oncotarget 2014 Aug. 30; 5(16):6670-86). Normal bronchial epithelial cells (NHBE) were obtained from Lonza and NHBE cells expressing telomerase, SV40 large T antigen and activated Ras (hT/LT/Ras) were a gift from Dr. B. J. Rollins, Dana Farber Cancer Institute. All cell lines were tested and found negative for mycoplasma (PCR Mycoplasma Detection Kit, ABM). Cell lines were grown in DMEM (A549, LNCaP, MDA-MB-231, LLC and PFKFB4^−/−), RPMI 1640 (H460, H1299, H441, H522) and McCoy's 5A media (HCT116) (all from Invitrogen) containing 10% fetal calf serum (Hyclone). […]
(§3) Cells were incubated in 20% trypan blue (Sigma) for 5 minutes. Cells excluding trypan blue were counted using a standard hemocytometer (Hausser Scientific) to determine total numbers of viable cells. Data are expressed as mean±SD of three experiments.

LLC cells = assay: cell cycle analysis by flow cytometry; type: cell-based, mouse; details: LLC cells in vitro, 10 μM 5MPN
Protocol: as §1

H460 cells [3] = assay: proliferation, viable cell count by trypan blue exclusion; type: cell-based, human
Protocol: as §3
H460 non-small cell lung cancer cells were plated in 24 well plates and exposed to increasing concentrations of the indicated inhibitors of Formula IV (FBR1-02 corresponds to
DMSO was used as vehicle. After 24, 48 and 72 hours of exposure, cells were detached and viable cells were counted by Trypan blue exclusion (representative counts at 48 hours shown).
Method: H460 cells were plated in 24 well plates and exposed to increasing concentrations of FB4-31 to FB4-36 and 5MPN. DMSO was used as a vehicle. After 24, 48 and 72 hours of exposure, cells were detached, and viable cells were counted by Trypan blue exclusion (representative counts at 72 hours shown).

hT/LT/Ras cells = assay: cell growth of transformed cells, live cell count; type: cell-based, human; details: live cells at 48 hours
Text: as §2, §3

PFK-1 = PFK-1 kinase activity; type: biochemical; details: 10 μM
cancer cells [4] = assay: glycolysis assay (3H2O from 5-[3H]glucose); type: cell-based; details: increasing concentrations
Protocol: Method: To examine glycolysis, cells growing in 6-well plates were incubated in 500 μl of complete medium containing 1 μCi of 5-[^3H] glucose per well for 60 min in 5% CO2 at 37° C. The medium was then collected and centrifuged to pellet any suspended cells. To separate the ^3H2O formed via glycolysis from the 5-[^3H]glucose added to the medium, an evaporation technique in a sealed system was utilized. Briefly, 150 μl aliquots of medium were added to open tubes that were placed upright inside scintillation vials containing 1 ml of H2O. The scintillation vials were sealed, and the ^3H2O produced by glycolysis through enolase and released to the medium was allowed to equilibrate with the H2O in the outer vial for 48 h at 37° C. The amounts of ^3H2O that had diffused into the surrounding H2O was measured on a Tri-Carb 2910 liquid scintillation analyzer (Perkin Elmer) and compared with ^3H2O and 5-[^3H]glucose standards. Protein concentration was determined using the BCA assay and counts were normalized to protein concentration (previously described in CHESNEY et al., “Fructose-2,6-bisphosphate synthesis by 6-phosphofructo-2-kinase/fructose-2,6-bisphosphatase 4 (PFKFB4) is required for the glycolytic response to hypoxia and tumor growth” Oncotarget (2014) Vol. 5, No. 16, pp. 6670-6686, which is herein incorporated by reference in its entirety).

cancer cells [5] = assay: intracellular ATP measurement; type: cell-based; details: increasing concentrations
Protocol: Method: To measure ATP, cells were washed (while still adherent) with cold PBS, lysed with Passive Lysis Buffer (Molecular Probes, Invitrogen) added directly to the plates, and immediately harvested by scraping. The lysates were flash frozen (to −80° C.) and thawed (to 37° C.) once to accomplish complete lysis and then centrifuged to clear the lysates. Intracellular ATP levels were determined using a bioluminescence assay (Molecular Probes), utilizing luciferase and its substrate, D-luciferin and ATP values were calculated using an ATP standard curve. The ATP concentration was normalized to protein concentration that was estimated using the BCA assay.

cancer cells [6] = assay: F26BP measurement in cells; type: cell-based; details: increasing concentrations
Protocol: Method: In order to measure F26BP, cells were exposed to increasing concentrations of Formula (VIII) and were harvested, washed with PBS, lysed in NaOH/Tris acetate by heating at 80° C. and lysates neutralized to pH 7.2. F26BP content was measured using a coupled enzyme reaction following a modified method of Van Schaftingen (VAN SCHAFTINGEN et al, “A kinetic study of pyrophosphate:fructose-6-phosphate phosphotransferase from potato tubers. Application to a microassay of fructose 2,6-bisphosphate” Eur J Biochem. (1982) Vol. 129, No. 1, pp. 191-195), which is herein incorporated by reference in its entirety. The F26BP concentration was normalized to total cellular protein measured by the bicinchoninic acid assay (BCA, Thermo Scientific).

SMILES | apoptotic cells (H460 cells [1]) | cell growth of normal cells [2] | cell cycle distribution (LLC cells) | cell proliferation (H460 cells [3]; H460, 24-72 hours) | growth (H460 cells [3]; H460, over 48 hours) | effect of overexpression of PFKFB4 on anti-proliferative effect (H460 cells [3]; H460 transfected with PFKFB4, 10 μM 5MPN, 24 hours) | cell growth of transformed cells (hT/LT/Ras cells) | inhibition of kinase activity (PFK-1) | glycolysis (production of 3H2O relative to DMSO) (cancer cells [4]) | production of ATP (cancer cells [5]) | F26BP (normalized to cellular protein) (cancer cells [6])
COc1cccc2c(NCCCCCO[N+](=O)[O-])ccnc12 [5MPN, 5-[(8-methoxyquinolin-4-yl)amino]pentyl nitrate] | increase in apoptotic cells | virtually unaffected | G1 arrest | reduction in cell proliferation | dose-dependent reduction in growth | protected | suppressed | did not inhibit | – | – | –
COc1cccc2c(NCCCCCNC(=O)C(F)(F)F)ccnc12 [Formula (VIII), 2,2,2-trifluoro-N-(5-((8-methoxyquinolin-4-yl)amino)pentyl)acetamide] | – | – | – | – | – | – | – | – | dose-dependent decrease | dose-dependent decrease | dose-dependent decrease
